# Reference: patent publication EP1200395B1, “UREA DERIVATIVES AS INHIBITORS OF CCR-3 RECEPTOR” (KIRIN BEER KABUSHIKI KAISHA, priority 1999, dated 2001)
# Molecular target: T1, CCR-3 (Homo sapiens, UniProt P51677)
# T1 sequence (P51677 1-355): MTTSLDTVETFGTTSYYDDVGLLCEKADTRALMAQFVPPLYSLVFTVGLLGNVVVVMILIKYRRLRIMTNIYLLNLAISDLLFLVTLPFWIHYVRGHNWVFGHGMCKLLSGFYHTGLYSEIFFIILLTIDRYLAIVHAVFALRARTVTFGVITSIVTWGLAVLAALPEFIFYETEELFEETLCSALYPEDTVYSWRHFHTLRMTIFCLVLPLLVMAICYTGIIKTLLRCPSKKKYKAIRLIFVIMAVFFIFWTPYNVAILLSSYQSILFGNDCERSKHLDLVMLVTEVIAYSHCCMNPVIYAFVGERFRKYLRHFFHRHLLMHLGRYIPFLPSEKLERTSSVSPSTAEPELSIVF
# Test: Calcium mobilization assay (inhibition of eotaxin-induced intracellular calcium mobilization in CCR3/HEK293 cells)
# Assay type: cell-based
# Design: expressed in transfected cells
# Conditions: 6.25 µg/ml test compound; eotaxin 10 nM; CCR3/HEK293 cells (Table 2a)
# Method: Compounds 93-162 used in this assay were synthesized by using the method described in Example 6.
# CCR-3 transfectant cells (CCR3/HEK293) were isolated and resuspended with assay buffer (20 mM HEPES, 125 mM NaCl, 5 mM KCl; 0.5 mM glucose, 1 mM CaCl2, 1 mM MgCl2, 0.1 % BSA). After washing CCR3/HEK293 cells with assay buffer, cells were loaded with Fura-2/AM in assay buffer for 1 hour at room temperature. Cells were washed and resuspended with assay buffer at 5 x 10^6 cells/ml in assay buffer, and placed in a tissue culture plate (Falcon, no. 3296). Test compounds dissolved in DMSO were added to the wells, followed by eotaxin (10 nM at final concentration). Cells were excited at 340 nm and 380 nm in a fluorimeter (ARGUS50, FDSS2000, Hamamatsu Photonics) and the relative ratio of the fluorescence emitted at 510 nm was recorded. For a control, DMSO without a test compound was added. Intracellular calcium mobilization was calculated as described in Krogel C. et al. , FEBS Let. (1989) 243 , 41-46.
row,Ca^2+ mobilization 6.25 µg/ml (inhibition %) [%],SMILES
1,50,CCN(CCCNC(=O)Nc1ccc(Cl)c(C(F)(F)F)c1)C1CCCc2ccccc21 (centres unmarked) [Compound 93]
2,50,CSCCCN(CCCNC(=O)Nc1ccc(Cl)c(C(F)(F)F)c1)Cc1ccc2c(c1)OCO2 [Compound 94]
3,55,CC(C)CN(CCCNC(=O)Nc1ccc(Cl)c(C(F)(F)F)c1)CCc1ccccc1 [Compound 95]
4,53,COc1ccc(CCN(CCCNC(=O)Nc2ccc(Cl)c(C(F)(F)F)c2)CC(C)C)cc1OC [Compound 96]
5,51,O=C(NCCCN(C[C@@H]1CCCN1)C1CCCc2ccccc21)Nc1ccccc1-c1ccccc1 (some centres unmarked) [Compound 98]
6,63,O=C(O)CCCN(CCCNC(=O)Nc1ccccc1-c1ccccc1)Cc1ccc2c(c1)OCO2 [Compound 101]
7,53,COc1cc(CN(CCCNC(=O)Nc2ccccc2-c2ccccc2)CCCSC)cc(OC)c1OC [Compound 103]
8,53,CSCCCN(CCCNC(=O)Nc1ccccc1-c1ccccc1)CCc1ccccc1 [Compound 105]
9,55,CC(C)CN(CCCNC(=O)Nc1ccccc1-c1ccccc1)CCC(c1ccccc1)c1ccccc1 [Compound 117]

# Molecular target: T1, CCR-3
# Test: Eotaxin-induced chemotaxis of CCR-3 transfectant cells (CCR3/U937)
# Assay type: cell-based
# Design: expressed in transfected cells; host or cells: U937
# Conditions: test compound 0.1 µg/ml; eotaxin 1 x 10^-9 M; CCR3/U937 transfectants; 37 °C, 1 hour
row,Chemotaxis Assay 0.1 µg/ml (inhibition %),SMILES
1,69%,CC[N+](CCCNC(=O)Nc1ccccc1)(CCOCCOC)CCc1cccc(F)c1.[I-] (centres unmarked) [compound 416]
2,59%,CC[N+](CCCNC(=O)Nc1ccccc1)(CCc1ccc(Cl)cc1)CC1CCC1.[I-] (centres unmarked) [compound 417]
3,76%,CC[N+](CCCNC(=O)Nc1ccccc1)(CCc1ccc(Cl)cc1Cl)CC1CCC1.[I-] (centres unmarked) [compound 419]
4,99%,CC[N+](CCCNC(=O)Nc1ccccc1)(CCc1ccc(Cl)c(Cl)c1)CC1CCC1.[I-] (centres unmarked) [compound 420]
5,66%,CC[N+](CCCNC(=O)Nc1ccccc1)(CCc1cccc(F)c1)CC1CCC1.[I-] (centres unmarked) [compound 421]
6,42%,C=C(C)C[N+](CC)(CCCNC(=O)Nc1ccccc1)CCc1ccc(Cl)cc1.[I-] (centres unmarked) [compound 422]
7,92%,C=C(C)C[N+](CC)(CCCNC(=O)Nc1ccccc1)CCc1cccc(Cl)c1.[I-] (centres unmarked) [compound 423]
8,95%,C=C(C)C[N+](CC)(CCCNC(=O)Nc1ccccc1)CCc1ccc(Cl)cc1Cl.[I-] (centres unmarked) [compound 424]
9,93%,C=C(C)C[N+](CC)(CCCNC(=O)Nc1ccccc1)CCc1ccc(Cl)c(Cl)c1.[I-] (centres unmarked) [compound 425]
10,44%,C=C(C)C[N+](CC)(CCCNC(=O)Nc1ccccc1)CCc1ccccc1.[I-] (centres unmarked) [compound 426]
11,67%,CCC(CC)C[N+](CC)(CCCNC(=O)Nc1ccccc1)CCc1ccc(Cl)cc1.[I-] (centres unmarked) [compound 427]
12,93%,CCC(CC)C[N+](CC)(CCCNC(=O)Nc1ccccc1)CCc1cccc(Cl)c1.[I-] (centres unmarked) [compound 428]
13,64%,CCC(CC)C[N+](CC)(CCCNC(=O)Nc1ccccc1)CCc1ccc(Cl)cc1Cl.[I-] (centres unmarked) [compound 429]
14,76%,CCC(CC)C[N+](CC)(CCCNC(=O)Nc1ccccc1)CCc1ccc(Cl)c(Cl)c1.[I-] (centres unmarked) [compound 430]
15,96%,CCC(CC)C[N+](CC)(CCCNC(=O)Nc1ccccc1)CCc1cccc(F)c1.[I-] (centres unmarked) [compound 431]
16,96%,CC[N+](CCF)(CCCNC(=O)Nc1ccccc1)CCc1cccc(Cl)c1.[I-] (centres unmarked) [compound 432]
17,76%,CC[N+](CCF)(CCCNC(=O)Nc1ccccc1)CCc1ccc(Cl)cc1Cl.[I-] (centres unmarked) [compound 433]
18,100%,CC[N+](CCF)(CCCNC(=O)Nc1ccccc1)CCc1ccc(Cl)c(Cl)c1.[I-] (centres unmarked) [compound 434]
19,51%,CC[N+](CCCNC(=O)Nc1ccc(OC)cc1)(CCOCCOC)CCc1cccc(F)c1.[I-] (centres unmarked) [compound 439]
20,82%,CCC(CC)C[N+](CC)(CCCNC(=O)Nc1ccc(OC)cc1)CCc1cccc(Cl)c1.[I-] (centres unmarked) [compound 448]
21,96%,CCC(CC)C[N+](CC)(CCCNC(=O)Nc1ccc(OC)cc1)CCc1ccc(Cl)c(Cl)c1.[I-] (centres unmarked) [compound 449]
22,35%,CCC(CC)C[N+](CC)(CCCNC(=O)Nc1ccc(OC)cc1)CCc1cccc(F)c1.[I-] (centres unmarked) [compound 450]
23,92%,CC[N+](CCF)(CCCNC(=O)Nc1ccc(OC)cc1)CCc1cccc(Cl)c1.[I-] (centres unmarked) [compound 451]
24,59%,CC[N+](CCF)(CCCNC(=O)Nc1ccc(OC)cc1)CCc1ccc(Cl)cc1Cl.[I-] (centres unmarked) [compound 452]
25,87%,CC[N+](CCF)(CCCNC(=O)Nc1ccc(OC)cc1)CCc1ccc(Cl)c(Cl)c1.[I-] (centres unmarked) [compound 453]

# Second part, the compound before the results:
row,SMILES,Chemotaxis Assay 0.1 µg/ml (inhibition %)
1,CC[N+](CCF)(CCCNC(=O)Nc1ccc(C(F)(F)F)cc1)CCc1cccc(Cl)c1.[I-] (centres unmarked) [compound 391],47%
2,CC[N+](CCCNC(=O)Nc1ccc(C#N)cc1)(CCOCCOC)CCc1cccc(OC)c1.[I-] (centres unmarked) [compound 392],45%
3,CCC(CC)C[N+](CC)(CCCNC(=O)Nc1ccc(C#N)cc1)CCc1cccc(Cl)c1.[I-] (centres unmarked) [compound 402],71%
4,CC[N+](CCF)(CCCNC(=O)Nc1ccc(C#N)cc1)CCc1cccc(Cl)c1.[I-] (centres unmarked) [compound 403],77%
5,CC[N+](CCF)(CCCNC(=O)Nc1ccc(C#N)cc1)CCc1ccc(Cl)cc1Cl.[I-] (centres unmarked) [compound 404],47%
6,CC[N+](CCF)(CCCNC(=O)Nc1ccc(C#N)cc1)CCc1c(Cl)cccc1Cl.[I-] (centres unmarked) [compound 405],57%
7,CC[N+](CCCNC(=O)Nc1ccccc1)(CCOCCOC)CCc1cccc(OC)c1.[I-] (centres unmarked) [compound 406],43%
8,CC[N+](CCCNC(=O)Nc1ccccc1)(CCc1cccc(Cl)c1)CCC(C)C.[I-] (centres unmarked) [compound 407],52%
9,CC[N+](CCCNC(=O)Nc1ccccc1)(CCc1ccc(Cl)c(Cl)c1)CCC(C)C.[I-] (centres unmarked) [compound 408],74%
10,CC[N+](CCCNC(=O)Nc1ccccc1)(CCc1ccc(Cl)cc1Cl)CC(N)=O.[I-] (centres unmarked) [compound 409],53%
11,CC[N+](CCCNC(=O)Nc1ccccc1)(CCc1ccc(Cl)c(Cl)c1)CC(N)=O.[I-] (centres unmarked) [compound 410],. 50%
12,CC[N+](CC#N)(CCCNC(=O)Nc1ccccc1)CCc1cccc(Cl)c1.[I-] (centres unmarked) [compound 411],42%
13,CC[N+](CCCNC(=O)Nc1ccccc1)(CCOCCOC)CCc1ccc(Cl)cc1.[I-] (centres unmarked) [compound 412],84%
14,CC[N+](CCCNC(=O)Nc1ccccc1)(CCOCCOC)CCc1cccc(Cl)c1.[I-] (centres unmarked) [compound 413],95%
15,CC[N+](CCCNC(=O)Nc1ccccc1)(CCOCCOC)CCc1ccc(Cl)cc1Cl.[I-] (centres unmarked) [compound 414],98%
16,CC[N+](CCCNC(=O)Nc1ccccc1)(CCOCCOC)CCc1ccc(Cl)c(Cl)c1.[I-] (centres unmarked) [compound 415],99%
